Source: patent US20120252773A1, “Method and composition for inhibiting cell proliferation and angiogenesis” (priority 2005, published 2012)

What was measured:
[1] = system: human endometrial Ishikawa cells; assay: Estrogenic activity, alkaline phosphatase, Ishikawa cell-based assay; conditions: 72 hours
Description: Ishikawa cell based assays were run in parallel on human endometrial Ishikawa cells treated with compound (2) or with 2-methoxyestradiol. 2-Methoxyestradiol is a compound reported in the literature as an anti-angiogenic agent. Cells were cultured in 96-well plates for 48 hours in estrogen- and phenol red-free medium (DMEM/Hamm's F12 medium) containing 5% fetal bovine serum stripped of endogenous estrogens with dextran coated charcoal (Sigma). Compound (2) or other test compounds were then added to the cells and culturing was continued for an additional 72 hours. To the control cells (no (2)), 10^−9 M of […] was added. At the end of 72 hours, alkaline phosphatase activity was measured by adding 5 mM p-nitrophenyl phosphate, 0.24 mM MgCl2, and 1 M diethanolamine (pH 9.8) to the cells while the 96-well plates were kept on ice. The plates were then warmed to room temperature, and the yellow color from the production of p-nitrophenol was measured after 2-3 hours using an ELISA plate reader at a wavelength of 405 nm. The estrogenic activity was defined as the alkaline phosphatase activity stimulated by the test compounds alone as a percentage of that stimulated by estradiol at 10^−9 M. Stimulation by estradiol at 10^−9 M was taken as 100%.

Stat-3 (pStat-3, Tyr705) = assay: Stat-3 phosphorylation, Western blot, DU-145 cells; assay type: cell-based, human; conditions: DU-145, 0.5 μM, 48 h
Description: Stat-3 is, therefore, an important molecular target for developing anti-cancer agents. DU-145 cells were treated with 0 (control), 100, or 500 nM of (2) for 48 hours. Western blot analysis was performed using total and phospho-Stat-3 (pStat-3, Tyr705) antibodies from Cell Signal Technology, Inc.

[2] = system: mouse transformed fibroblast cell line (L929); assay: Cell growth inhibition, MTT, 7 days, L929; assay type: cell-based; conditions: L929, 7 days, compared with human cancer cell lines
Description: To measure the inhibitory activity of (2) on growth of HDMVEC cells (Clonetics, San Diego, Calif.), 2,000 cells were seeded in each well of a 96-well plate in […] of EGM medium (Clonetics) supplemented with 5% fetal bovine serum (Sigma). The plate was incubated at 37° C. in a tissue culture incubator for 24 h, and then various concentrations of (2) dissolved in EGM were added to each well in 5-10 μl aliquots. Four wells were used for each concentration. Medium in each well was renewed with fresh test solution added every other day. After 7 days of culture, the viable cells were measured using reagents from an MTT kit (Promega Corporation, Madison, Wis.), using instructions provided by the supplier. The number of viable cells in treated wells relative to those in control wells gave the percentage of inhibition.
Compound (2) was evaluated in several different human cancer cell lines for its effects on cell growth. The human cancer cell lines used (ATCC) were A549 lung cancer cells, U-87 brain cancer cells, SKOV-3 ovarian cancer cells, PC-3 non-androgen dependent prostate cancer cells, and MDA MB-231 estrogen-independent breast cancer cells. Human umbilical vein endothelial cells (HUVEC) and a mouse transformed fibroblast cell line (L929) were also included in the assay for comparison. […]

[3] = biological target: T1, Human recombinant estrogen receptor-β (ER-β) (Homo sapiens, UniProt Q92731); assay: Estrogen receptor binding assay, 3H-17β-estradiol displacement, ER-β; conditions: 4° C. overnight
T1 construct: purchased PanVera Corporation (Madison, Wis.)
T1 sequence (Q92731 whole entry): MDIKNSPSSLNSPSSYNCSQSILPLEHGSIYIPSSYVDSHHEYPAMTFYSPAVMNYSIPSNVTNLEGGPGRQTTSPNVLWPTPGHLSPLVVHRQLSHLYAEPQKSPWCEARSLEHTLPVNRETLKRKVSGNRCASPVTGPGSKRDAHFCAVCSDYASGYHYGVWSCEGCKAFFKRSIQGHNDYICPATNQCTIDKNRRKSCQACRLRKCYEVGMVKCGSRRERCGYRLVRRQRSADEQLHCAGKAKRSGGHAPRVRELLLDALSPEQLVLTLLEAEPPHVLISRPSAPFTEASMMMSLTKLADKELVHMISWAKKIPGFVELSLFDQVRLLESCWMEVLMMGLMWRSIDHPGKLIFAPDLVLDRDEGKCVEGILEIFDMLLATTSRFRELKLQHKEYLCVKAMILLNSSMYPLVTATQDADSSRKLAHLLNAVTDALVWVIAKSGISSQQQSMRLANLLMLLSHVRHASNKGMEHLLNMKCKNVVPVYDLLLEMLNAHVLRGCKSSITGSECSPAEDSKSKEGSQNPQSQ
Description: Human recombinant estrogen receptor-α (ER-α) and estrogen receptor-β (ER-β) were obtained from PanVera Corporation (Madison, Wis.) to conduct the binding assay. To measure the binding affinity of (2), various concentrations of (2) or 17β-estradiol were incubated with either ER-α or ER-β receptor in the presence of a fixed amount of ^3H-17β-estradiol at 4° C. overnight. At the end of the incubation, the free- and bound-3H-estradiol were separated following the instructions provided by the manufacturer using hydroxylapatite.

C[C@@H]1Cc2cc(O)ccc2C2CCC3(C)/C(=C/COCCN(C)C)CCC3C21 (stereo partly drawn) [Compound (2), (E)-3-Hydroxy-7α-methyl-21-[(2-dimethylamino)ethoxy]-19-norpregna-1,3,5(10),17(20)-tetraene]
estrogenic activity (alkaline phosphatase stimulation relative to estradiol at 10^−9 M) [1]: essentially no such activity | reduction of tyrosine phosphorylation of Stat-3 (Stat-3 (pStat-3, Tyr705)): 52% | effect on growth of L929 mouse fibroblast cells [2]: much less | binding affinity (relative to non-radiolabeled estradiol, 50% displacement of 3H-estradiol) [3]: 64
